# Read-outs that look alike come from different tables or passages of the source. Starred links: 1 amine or outer side, 2 acyl side, 3 side chain; linkers in the order of their positions; H or OH if unused. Positions of bridges follow the written chain, without caps; N, C: chain ends. Non-standard residues stand in square brackets, D forms with d. Residues, ends and D or L forms follow the SMILES beside them. *: point of attachment. Phe(3-OCH2COOH) = N[C@@H](Cc1cccc(OCC(=O)O)c1)C(=O)O; Phe(4-COOH) = N[C@@H](Cc1ccc(C(=O)O)cc1)C(=O)O; Trp(6-aza) = N[C@@H](Cc1c[nH]c2cnccc12)C(=O)O; Trp(7-aza) = N[C@@H](Cc1c[nH]c2ncccc12)C(=O)O; Piperazinyl(4-CH2COOH) = O=C(O)CN1CCN(*)CC1; Piperidinyl(4-CH2COOH) = O=C(O)CC1CCN(*)CC1; Bip = N[C@@H](Cc1ccc(-c2ccccc2)cc1)C(=O)O; Gly(decyl) = CCCCCCCCCC[C@H](N)C(=O)O; Gly(N(CH2)3COOH) = O=C(O)CCCNCC(=O)O; X1 = CCCCCCC[C@H](N[*:1])C(=O)[*:2]; NMeCha = CN[C@@H](CC1CCCCC1)C(=O)O; NMeF = CN[C@@H](Cc1ccccc1)C(=O)O; 4Pal = N[C@@H](Cc1ccncc1)C(=O)O; NMeE = CN[C@@H](CCC(=O)O)C(=O)O; Ahp(2) = CCCCC[C@H](N)C(=O)O; NMeA = CN[C@@H](C)C(=O)O; Sar = CNCC(=O)O
# Key:
# Type in all cases: cell-based
# Myostatin [1] = molecular target: T1, Myostatin (Homo sapiens, UniProt O14793); assay: Reporter gene assay for myostatin signaling in HepG2 cell line, Evaluation Procedure (1), myostatin inhibition; settings: read-out: IC50 (Luciferase) Myostatin HepG2
# T1 construct: active myostatin (also called mature myostatin) is a homodimer consisting of two C-terminal growth factor domains; purchased R&D systems 788-G8/CF
# T1 sequence (O14793 267-375): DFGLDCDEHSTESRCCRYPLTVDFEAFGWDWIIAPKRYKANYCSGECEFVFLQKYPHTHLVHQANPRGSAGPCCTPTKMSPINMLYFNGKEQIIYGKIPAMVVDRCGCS
# In short: (§1)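 HepG2 cells transfected with pGL3(CAGA)12-luciferase reporter, serum-starved in 0.1% BSA medium, then stimulated with myostatin or GDF-11 plus 4-fold peptide dilutions (0.006–100 nmol/L for myostatin, 0.12–2000 nmol/L for GDF-11) for 20–24 h at 37 °C. Luminescence read with One-Glo; IC50 calculated.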
# Myostatin [2] = assay: as above; settings: GDF-11 IC50 versus Myostatin IC50
# In short: as §1
# GDF-11 = molecular target: T2, GDF-11 (Homo sapiens, UniProt O95390); assay: Reporter gene assay for myostatin signaling in HepG2 cell line, Evaluation Procedure (1), GDF-11 inhibition; settings: read-out: IC50 (Luciferase) GDF-11 HepG2
# T2 construct: purchased R&D systems 1958-GD-G8/CF
# T2 sequence (O95390 299-407): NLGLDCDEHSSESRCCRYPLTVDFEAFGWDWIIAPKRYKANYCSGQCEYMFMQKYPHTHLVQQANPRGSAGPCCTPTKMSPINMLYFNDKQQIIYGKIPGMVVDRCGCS
# In short: as §1
Structure (SMILES),IC50 (Myostatin [1]; Method B: Myostatin 1 ng/mL) [nM],Selectivity (Myostatin [2]; Method B),IC50 (GDF-11; Method B: GDF-11 1 ng/mL) [nM],IC50 (Myostatin [1]; Method A: Myostatin 10 ng/mL) [nM],Selectivity (Myostatin [2]; Method A),IC50 (GDF-11; Method A: GDF-11 10 ng/mL) [nM]
CCCCCCCCCC[C@@H]1NC(=O)[C@H](Cc2ccccc2)N(C)C(=O)[C@H](CCCNC(=N)N)NC(=O)[C@H](Cc2ccc(C(=O)O)cc2)NC(=O)[C@H](Cc2cccc(OCC(=O)O)c2)NC(=O)[C@H]2CCCN2C(=O)[C@H]([C@@H](C)CC)NC(=O)[C@H](Cc2ccccc2)N(C)C(=O)[C@H](Cc2ccc(O)cc2)NC(=O)[C@H](Cc2c[nH]c3ccccc23)NC(=O)[C@H](C)NC(=O)[C@H](C)NC(=O)CSC[C@H](C(=O)N2CCC(CC(=O)O)CC2)NC(=O)[C@H](Cc2ccccc2)N(C)C(=O)[C@H](CCC(=O)O)N(C)C1=O [Myostatin_99_v335] ({CH2CO}-AAWY[NMeF]I[dP][Phe(3-OCH2COOH)][Phe(4-COOH)]R[NMeF][Gly(decyl)][NMeE][NMeF][dC]-{Piperidinyl(4-CH2COOH)}; thioether N-15),0.32,145.0,46.6,–,–,–
CC[C@H](C)[C@@H]1NC(=O)[C@H](Cc2ccccc2)N(C)C(=O)[C@H](Cc2ccc(O)cc2)NC(=O)[C@H](Cc2c[nH]c3ncccc23)NC(=O)[C@H](C)NC(=O)CN(CCCC(=O)O)C(=O)CSC[C@H](C(=O)O)NC(=O)[C@H](Cc2ccccc2)N(C)C(=O)[C@H](C)N(C)C(=O)[C@H](CC(C)C)NC(=O)[C@H](Cc2ccccc2)N(C)C(=O)[C@H](CCCNC(=N)N)NC(=O)[C@H](Cc2ccc(C(=O)O)cc2)NC(=O)[C@H](Cc2ccncc2)NC(=O)CN(C)C1=O [Myostatin_99_Variant_21-OH] ({CH2CO}-[Gly(N(CH2)3COOH)]A[Trp(7-aza)]Y[NMeF]I[Sar][4Pal][Phe(4-COOH)]R[NMeF]L[NMeA][NMeF][dC]-OH; thioether N-15),–,–,–,106,41,4320
CCCCCCC[C@@H]1NC(=O)[C@H](Cc2ccccc2)N(C)C(=O)[C@H](CCCNC(=N)N)NC(=O)[C@H](Cc2ccc(O)cc2)NC(=O)[C@H](Cc2cccc(OCC(=O)O)c2)NC(=O)CN(C)C(=O)[C@H]([C@@H](C)CC)NC(=O)[C@H](Cc2ccccc2)N(C)C(=O)[C@H](Cc2ccc(O)cc2)NC(=O)[C@H](Cc2c[nH]c3ncccc23)NC(=O)[C@@H](CCC(=O)O)NC(=O)[C@H](C)NC(=O)CSC[C@H](C(=O)O)NC(=O)[C@H](Cc2ccccc2)N(C)C(=O)[C@H](C)N(C)C1=O [Myostatin_99_v219] ({CH2CO}-A[dE][Trp(7-aza)]Y[NMeF]I[Sar][Phe(3-OCH2COOH)]YR[NMeF][X1][NMeA][NMeF][dC]-OH; thioether N-15),–,–,–,2.7,116,313
CCCCCCCCCC[C@@H]1NC(=O)[C@H](Cc2ccccc2)N(C)C(=O)[C@H](CCCNC(=N)N)NC(=O)[C@H](Cc2ccc(C(=O)O)cc2)NC(=O)[C@H](Cc2cccc(OCC(=O)O)c2)NC(=O)CN(C)C(=O)[C@H]([C@@H](C)OC)NC(=O)[C@H](Cc2ccccc2)N(C)C(=O)[C@H](Cc2ccc(O)cc2)NC(=O)[C@H](Cc2c[nH]c3cnccc23)NC(=O)[C@H](C)NC(=O)[C@H](C)NC(=O)CSC[C@H](C(=O)N2CCC(CC(=O)O)CC2)NC(=O)[C@H](Cc2ccccc2)N(C)C(=O)[C@H](CCC(=O)O)N(C)C1=O [Myostatin_99_v341] ({CH2CO}-AA[Trp(6-aza)]Y[NMeF]T(Me)[Sar][Phe(3-OCH2COOH)][Phe(4-COOH)]R[NMeF][Gly(decyl)][NMeE][NMeF][dC]-{Piperidinyl(4-CH2COOH)}; thioether N-15),0.76,173.9,132,–,–,–
CCCCCCC[C@@H]1NC(=O)[C@H](Cc2ccccc2)N(C)C(=O)[C@H](CCCNC(=N)N)NC(=O)[C@H](Cc2ccc(C(=O)O)cc2)NC(=O)[C@H](Cc2cccc(OCC(=O)O)c2)NC(=O)[C@H]2CCCN2C(=O)[C@H]([C@@H](C)CC)NC(=O)[C@H](CC2CCCCC2)N(C)C(=O)[C@H](Cc2ccc(O)cc2)NC(=O)[C@H](Cc2c[nH]c3ccccc23)NC(=O)[C@@H](CCC(=O)O)NC(=O)[C@H](C)NC(=O)CSC[C@H](C(=O)N2CCN(CC(=O)O)CC2)NC(=O)[C@H](Cc2ccccc2)N(C)C(=O)[C@H](C)N(C)C1=O [Myostatin_99_v253] ({CH2CO}-A[dE]WY[NMeCha]I[dP][Phe(3-OCH2COOH)][Phe(4-COOH)]R[NMeF][X1][NMeA][NMeF][dC]-{Piperazinyl(4-CH2COOH)}; thioether N-15),–,–,–,5.7,428,2440
CCCCCCC[C@@H]1NC(=O)[C@H](Cc2ccccc2)N(C)C(=O)[C@H](CCCNC(=N)N)NC(=O)[C@H](Cc2ccc(C(=O)O)cc2)NC(=O)[C@H](Cc2cccc(OCC(=O)O)c2)NC(=O)[C@H](C)N(C)C(=O)[C@H]([C@@H](C)CC)NC(=O)[C@H](Cc2ccccc2)N(C)C(=O)[C@H](Cc2ccc(O)cc2)NC(=O)[C@H](Cc2c[nH]c3ncccc23)NC(=O)[C@H](C)NC(=O)CN(CCCC(=O)O)C(=O)CSC[C@H](C(=O)O)NC(=O)[C@H](Cc2ccccc2)N(C)C(=O)[C@H](C)N(C)C1=O [Myostatin_99_v148] ({CH2CO}-[Gly(N(CH2)3COOH)]A[Trp(7-aza)]Y[NMeF]I[NMeA][Phe(3-OCH2COOH)][Phe(4-COOH)]R[NMeF][X1][NMeA][NMeF][dC]-OH; thioether N-15),–,–,–,1.5,293,439
CC[C@H](C)[C@@H]1NC(=O)[C@H](Cc2ccccc2)N(C)C(=O)[C@H](Cc2ccc(O)cc2)NC(=O)[C@H](Cc2ccc(-c3ccccc3)cc2)NC(=O)[C@H](CO)NC(=O)CN(CCCC(=O)O)C(=O)CSC[C@H](C(=O)O)NC(=O)[C@H](Cc2ccccc2)N(C)C(=O)[C@H](C)N(C)C(=O)[C@H](CC(C)C)NC(=O)[C@H](Cc2ccccc2)N(C)C(=O)[C@H](CCCNC(=N)N)NC(=O)[C@H](Cc2ccc(C(=O)O)cc2)NC(=O)[C@H](Cc2ccc(O)cc2)NC(=O)CN(C)C1=O [Myostatin_99_v186] ({CH2CO}-[Gly(N(CH2)3COOH)]S[Bip]Y[NMeF]I[Sar]Y[Phe(4-COOH)]R[NMeF]L[NMeA][NMeF][dC]-OH; thioether N-15),–,–,–,43.2,22,935
CCCCCCC[C@@H]1NC(=O)[C@H](Cc2ccccc2)N(C)C(=O)[C@H](CCCNC(=N)N)NC(=O)[C@H](Cc2ccc(C(=O)O)cc2)NC(=O)[C@H](Cc2ccc(O)cc2)NC(=O)CN(C)C(=O)[C@H]([C@@H](C)CC)NC(=O)[C@H](Cc2ccccc2)N(C)C(=O)[C@H](Cc2ccc(O)cc2)NC(=O)[C@H](Cc2c[nH]c3ncccc23)NC(=O)[C@H](C)NC(=O)CN(CCCC(=O)O)C(=O)CSC[C@H](C(=O)O)NC(=O)[C@H](Cc2ccccc2)N(C)C(=O)[C@H](C)N(C)C1=O [Myostatin_99_v168] ({CH2CO}-[Gly(N(CH2)3COOH)]A[Trp(7-aza)]Y[NMeF]I[Sar]Y[Phe(4-COOH)]R[NMeF][X1][NMeA][NMeF][dC]-OH; thioether N-15),–,–,–,2.1,57,119
CC[C@H](C)[C@@H]1NC(=O)[C@H](Cc2ccccc2)N(C)C(=O)[C@H](Cc2ccc(O)cc2)NC(=O)[C@H](Cc2c[nH]c3ccccc23)NC(=O)[C@H](C)NC(=O)CN(CCCC(=O)O)C(=O)CSC[C@H](C(=O)O)NC(=O)[C@H](Cc2ccccc2)N(C)C(=O)[C@H](C)N(C)C(=O)[C@H](CC(C)C)NC(=O)[C@H](Cc2ccccc2)N(C)C(=O)[C@H](CCCNC(=N)N)NC(=O)[C@H](Cc2ccc(C(=O)O)cc2)NC(=O)[C@H](Cc2cccc(OCC(=O)O)c2)NC(=O)CN(C)C1=O [Myostatin_99_v156] ({CH2CO}-[Gly(N(CH2)3COOH)]AWY[NMeF]I[Sar][Phe(3-OCH2COOH)][Phe(4-COOH)]R[NMeF]L[NMeA][NMeF][dC]-OH; thioether N-15),–,–,–,69,70,4810
CCCCCCC[C@@H]1NC(=O)[C@H](Cc2ccccc2)N(C)C(=O)[C@H](CCCNC(=N)N)NC(=O)[C@H](Cc2ccc(C(=O)O)cc2)NC(=O)[C@H](Cc2cccc(OCC(=O)O)c2)NC(=O)[C@H]2CCCN2C(=O)[C@H]([C@@H](C)CC)NC(=O)[C@H](Cc2ccccc2)N(C)C(=O)[C@H](Cc2ccc(O)cc2)NC(=O)[C@H](Cc2c[nH]c3ccccc23)NC(=O)[C@@H](CCC(=O)O)NC(=O)[C@H](C)NC(=O)CSC[C@H](C(=O)N2CCN(CC(=O)O)CC2)NC(=O)[C@H](Cc2ccccc2)N(C)C(=O)[C@H](C)N(C)C1=O [Myostatin_99_v254] ({CH2CO}-A[dE]WY[NMeF]I[dP][Phe(3-OCH2COOH)][Phe(4-COOH)]R[NMeF][X1][NMeA][NMeF][dC]-{Piperazinyl(4-CH2COOH)}; thioether N-15),–,–,–,3.6,921,3310
CCCCC[C@@H]1NC(=O)[C@H](Cc2ccccc2)N(C)C(=O)[C@H](CCCNC(=N)N)NC(=O)[C@H](Cc2ccc(C(=O)O)cc2)NC(=O)[C@H](Cc2cccc(OCC(=O)O)c2)NC(=O)CN(C)C(=O)[C@H]([C@@H](C)CC)NC(=O)[C@H](Cc2ccccc2)N(C)C(=O)[C@H](Cc2ccc(O)cc2)NC(=O)[C@H](Cc2c[nH]c3ccccc23)NC(=O)[C@H](C)NC(=O)[C@H](C)NC(=O)CSC[C@H](C(=O)O)NC(=O)[C@H](Cc2ccccc2)N(C)C(=O)[C@H](C)N(C)C1=O [Myostatin_99_v201] ({CH2CO}-AAWY[NMeF]I[Sar][Phe(3-OCH2COOH)][Phe(4-COOH)]R[NMeF][Ahp(2)][NMeA][NMeF][dC]-OH; thioether N-15),–,–,–,8.6,262,2260

# From patent publication EP4786487A1, “PEPTIDE” (Peptidream Inc, priority 2023, dated 2025)
